Source: patent publication US10745382B2 (BRISTOL-MYERS SQUIBB COMPANY, priority 2015, dated 2020)
Like-named read-outs stand apart in the source and are kept apart here.

Biological target: T1, PD-1/PD-L1 (Homo sapiens, UniProt Q9NZQ7)
T1 construct: made in house; host or cells: HEK293T
Assay: PD-1/PD-L1 Homogenous Time-Resolved Fluorescence (HTRF) binding assay
Details: PD-L1-His 10 nM, PD-1-Ig 20 nM, read-out: Range or IC50
Summary of the method: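 dPBS + 0.1% BSA + 0.05% Tween-20 buffer; Eu-cryptate anti-Ig 1 nM final, APC anti-His 20 nM final; HTRF read. Counter-assays: PD-1-Ig/PD-L2-His 20 & 5 nM, CD80-His/PD-L1-Ig 100 & 10 nM.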

T1 sequence (Q9NZQ7 with tags, fused parts or gaps): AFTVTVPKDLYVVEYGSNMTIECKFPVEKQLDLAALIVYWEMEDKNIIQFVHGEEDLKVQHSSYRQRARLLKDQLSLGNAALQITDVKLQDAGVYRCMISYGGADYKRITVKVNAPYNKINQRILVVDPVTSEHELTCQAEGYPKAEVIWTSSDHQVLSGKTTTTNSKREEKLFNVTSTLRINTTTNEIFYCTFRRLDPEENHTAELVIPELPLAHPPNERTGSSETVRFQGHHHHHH

SMILES	IC50 (value given as range class) [nM]	IC50 (numeric IC50) [nM]
N#Cc1cncc(COc2cc(OCc3cccc(-c4cccc(OCCCN5CCCCC5)c4Cl)c3Cl)c(Cl)cc2CO)c1 [Example 2046, 5-((4-chloro-5-((2,2′-dichloro-3′-(3-(piperidin-1-yl)propoxy)-[1,1′-biphenyl]-3-yl)methoxy)-2-(hydroxymethyl)phenoxy)methyl)nicotinonitrile]	0.21 to 10	
Cc1c(COc2cc(OCc3cncc(C#N)c3)c(CN[C@](C)(CO)C(=O)O)cc2Cl)cccc1-c1cccc(OCCCNC(CO)CO)c1Cl [Example 2038, (R)-2-((5-chloro-4-((2′-chloro-3′-(3-((1,3-dihydroxypropan-2-yl)amino)propoxy)-2-methyl-[1,1′-biphenyl]-3-yl)methoxy)-2-((5-cyanopyridin-3-yl)methoxy)benzyl)amino)-3-hydroxy-2-methylpropanoic Acid]	0.21 to 10	
Cc1c(COc2cc(OCc3cncc(C(N)=O)c3)c(CN3CCCC[C@H]3C(=O)O)cc2Cl)cccc1-c1cccc(OCCCN2CCC(CO)(C(=O)O)CC2)c1Cl [Example 1114, (S)-1-(2-((5-carbamoylpyridin-3-yl)methoxy)-4-((3′-(3-(4-carboxy-4-(hydroxymethyl)piperidin-1-yl)propoxy)-2′-chloro-2-methyl-[1,1′-biphenyl]-3-yl)methoxy)-5-chlorobenzyl)piperidine-2-carboxylic Acid]	0.21 to 10	
COC(=O)[C@@H]1CCCCN1CCCOc1cccc(-c2cccc(COc3cc(OCc4cncc(C#N)c4)c(CN4CCCC[C@H]4C(=O)O)cc3Cl)c2C)c1C [Example 2243, (2S)-1-(5-chloro-2-((5-cyanopyridin-3-yl)methoxy)-4-((3′-(3-((S)-2-(methoxycarbonyl)piperidin-1-yl)propoxy)-2,2′-dimethylbiphenyl-3-yl)methoxy)benzyl)piperidine-2-carboxylic Acid]	0.21 to 10	
Cc1c(COc2cc(OCc3cncc(S(C)(=O)=O)c3)c(CN3CCCC[C@H]3C(=O)O)cc2Cl)cccc1-c1cccc(OCCCN2CC[C@@H](O)C2)c1C [Example 1027, (S)-1-(5-chloro-4-((3′-(3-((R)-3-hydroxypyrrolidin-1-yl)propoxy)-2,2′-dimethyl-[1,1′-biphenyl]-3-yl)methoxy)-2-((5-(methylsulfonyl)pyridin-3-yl)methoxy)benzyl)piperidine-2-carboxylic Acid]	0.21 to 10	
Cc1c(COc2cc(OCc3cncc(C#N)c3)c(CN3CCCC[C@H]3C(=O)O)cc2Cl)cccc1-c1cccc(OCC(CO)(CO)CO)c1Cl [Example 2084, (S)-1-(5-chloro-4-((2′-chloro-3′-(3-hydroxy-2,2-bis(hydroxymethyl)propoxy)-2-methyl-[1,1′-biphenyl]-3-yl)methoxy)-2-((5-cyanopyridin-3-yl)methoxy)benzyl)piperidine-2-carboxylic Acid]	100 to 2000	
Cc1c(COc2cc(OCc3cncc(C#N)c3)c(CN(CCC(F)(F)F)C(CO)CO)cc2Cl)cccc1-c1cccc(OCCCN2CCC(O)(CO)CC2)c1Cl [Example 2074, 5-((4-chloro-5-((2′-chloro-3′-(3-(4-hydroxy-4-(hydroxymethyl)piperidin-1-yl)propoxy)-2-methyl-[1,1′-biphenyl]-3-yl)methoxy)-2-(((1,3-dihydroxypropan-2-yl)(3,3,3-trifluoropropyl)amino)methyl)phenoxy)methyl)nicotinonitrile]	0.21 to 10	
Cc1c(COc2cc(OCc3cncc(C#N)c3)c(CN3C[C@@H](O)C[C@H]3C(=O)O)cc2Cl)cccc1-c1cccc(C(=O)N2CCOCC2)c1C [Example 4051, (2S,4S)-1-(5-chloro-2-((5-cyanopyridin-3-yl)methoxy)-4-((2,2′-dimethyl-3′-(morpholine-4-carbonyl)-[1,1′-biphenyl]-3-yl)methoxy)benzyl)-4-hydroxypyrrolidine-2-carboxylic Acid]	10 to 100	
Cc1c(COc2cc(OCc3cncc(C#N)c3)c(CNC(C)(CO)CO)cc2Cl)cccc1-c1cccc(OCCCN2CCC(F)(F)C2)c1C [Example 4117, 5-((4-chloro-5-((3′-(3-(3,3-difluoropyrrolidin-1-yl)propoxy)-2,2′-dimethyl-[1,1′-biphenyl]-3-yl)methoxy)-2-(((1,3-dihydroxy-2-methylpropan-2-yl)amino)methyl)phenoxy)methyl)nicotinonitrile]	0.21 to 10	
Cc1c(COc2cc(OCc3cncc(C#N)c3)c(CNC(C)(CO)CO)cc2Cl)cccc1-c1cccc(OCC(CO)CO)c1Cl [Example 2079, 5-((4-chloro-5-((2′-chloro-3′-(3-hydroxy-2-(hydroxymethyl)propoxy)-2-methyl-[1,1′-biphenyl]-3-yl)methoxy)-2-(((1,3-dihydroxy-2-methylpropan-2-yl)amino)methyl)phenoxy)methyl)nicotinonitrile]	0.21 to 10	
Cc1c(COc2cc(OCc3cncc(C#N)c3)c(CN[C@H](CO)C(=O)O)cc2Cl)cccc1-c1cccc(OC[C@@H]2CCCN3CCCC[C@H]23)c1C [Example 1042, (R)-2-((5-chloro-2-((5-cyanopyridin-3-yl)methoxy)-4-((2,2′-dimethyl-3′-(((1R,9aR)-octahydro-1H-quinolizin-1-yl)methoxy)-[1,1′-biphenyl]-3-yl)methoxy)benzyl)amino)-3-hydroxypropanoic Acid]	0.21 to 10	
Cc1c(OCCCN2CC[C@@H](O)C2)cccc1-c1cccc(COc2cc(OCc3cncc(C#N)c3)c(CN[C@](C)(CO)C(=O)O)cc2Cl)c1 [Example 3015]	0.21 to 10	
COc1ccccc1N1CCN(CCCOc2cccc(-c3cccc(COc4cc(OCc5cncc(C#N)c5)c(CN5CCCC[C@H]5C(=O)O)cc4Cl)c3C)c2C)CC1 [Example 2219, (2S)-1-(5-chloro-2-((5-cyanopyridin-3-yl)methoxy)-4-((3′-(3-(4-(2-methoxyphenyl)piperazin-1-yl)propoxy)-2,2′-dimethylbiphenyl-3-yl)methoxy)benzyl)piperidine-2-carboxylic Acid]	0.21 to 10	
Cc1c(COc2cc(OCc3cncc(C#N)c3)c(CN3CCCC[C@H]3C(=O)O)cc2Cl)cccc1-c1cccc(C(=O)N2CCOCC2)c1C [Example 4048, (S)-1-(5-chloro-2-((5-cyanopyridin-3-yl)methoxy)-4-((2,2′-dimethyl-3′-(morpholine-4-carbonyl)-[1,1′-biphenyl]-3-yl)methoxy)benzyl)piperidine-2-carboxylic Acid]	100 to 2000	

Continued, values first:

IC50 (value given as range class) [nM]	IC50 (numeric IC50) [nM]	SMILES
	1.9	Cc1c(COc2cc(OCc3cncc(C#N)c3)c(CNC(CO)CO)cc2Cl)cccc1-c1cccc(OCCCN2CCCCC2)c1C [Example 2291, 5-((4-chloro-2-(((1,3-dihydroxypropan-2-yl)amino)methyl)-5-((2,2′-dimethyl-3′-(3-(piperidin-1-yl)propoxy)-[1,1′-biphenyl]-3-yl)methoxy)phenoxy)methyl)nicotinonitrile]
0.21 to 10		Cc1c(COc2cc(OCc3cncc(C#N)c3)c(CN(C)C[C@H](O)CO)cc2Cl)cccc1-c1cccc(OCCCN(C)C[C@H](O)CO)c1C [Example 2271, 5-((4-chloro-2-((((S)-2,3-dihydroxypropyl)(methyl)amino)methyl)-5-((3′-(3-(((S)-2,3-dihydroxypropyl)(methyl)amino)propoxy)-2,2′-dimethylbiphenyl-3-yl)methoxy)phenoxy)methyl)nicotinonitrile]
0.21 to 10		Cc1c(COc2cc(OCc3cncc(C#N)c3)c(CN3CCCC[C@H]3C(=O)O)cc2Cl)cccc1-c1cccc(OCCCN2CCOCC2)c1C [Example 2212, (2S)-1-(5-chloro-2-((5-cyanopyridin-3-yl)methoxy)-4-((2,2′-dimethyl-3′-(3-morpholinopropoxy)biphenyl-3-yl)methoxy)benzyl)piperidine-2-carboxylic Acid]
0.21 to 10		Cc1c(COc2cc(OCc3cncc(C#N)c3)c(CN[C@](C)(CO)C(=O)O)cc2Cl)cccc1-c1cccc(OCCCN2[C@@H]3CC[C@H]2C[C@@H](O)C3)c1 [Example 3019, (R)-2-((5-chloro-2-((5-cyanopyridin-3-yl)methoxy)-4-((3′-(3-((1R,3R,5S)-3-hydroxy-8-azabicyclo[3.2.1]octan-8-yl)propoxy)-2-methyl-[1,1′-biphenyl]-3-yl)methoxy)benzyl)amino)-3-hydroxy-2-methylpropanoic Acid]
100 to 2000		CNC(=O)c1cccc(-c2cccc(COc3cc(OCc4cc(F)cc(F)c4)c(CN4C[C@@H](O)C[C@H]4C(=O)O)cc3Cl)c2C)c1C [Example 4026, (2S,4S)-1-(5-chloro-2-((3,5-difluorobenzyl)oxy)-4-((2,2′-dimethyl-3′-(methylcarbamoyl)-[1,1′-biphenyl]-3-yl)methoxy)benzyl)-4-hydroxypyrrolidine-2-carboxylic Acid]
100 to 2000		Cc1c(COc2cc(OCc3cncc(C#N)c3)c(CN[C@@H](CN)C(=O)O)cc2Cl)cccc1-c1cccc(C(=O)N2CCOCC2)c1C [Example 4059, (S)-3-amino-2-((5-chloro-2-((5-cyanopyridin-3-yl)methoxy)-4-((2,2′-dimethyl-3′-(morpholine-4-carbonyl)-[1,1′-biphenyl]-3-yl)methoxy)benzyl)amino)propanoic Acid]
0.21 to 10		Cc1c(COc2cc(OCc3cncc(C#N)c3)c(CN3CCCC[C@H]3C(=O)O)cc2Cl)cccc1-c1cccc(OCCCN2CCC[C@@H](C(=O)O)C2)c1C [Example 2205, (2S)-1-(4-((3′-(3-((R)-3-carboxypiperidin-1-yl)propoxy)-2,2′-dimethylbiphenyl-3-yl)methoxy)-5-chloro-2-((5-cyanopyridin-3-yl)methoxy)benzyl)piperidine-2-carboxylic Acid]
	3	Cc1c(COc2cc(OCc3cncc(C#N)c3)c(CNC(CO)(CO)CO)cc2Cl)cccc1-c1cccc(OCCCNC(CO)(CO)CO)c1C [Example 2281, 5-((4-chloro-2-(((1,3-dihydroxy-2-(hydroxymethyl)propan-2-yl)amino)methyl)-5-((3′-(3-((1,3-dihydroxy-2-(hydroxymethyl)propan-2-yl)amino)propoxy)-2,2′-dimethyl-[1,1′-biphenyl]-3-yl)methoxy)phenoxy)methyl)nicotinonitrile]
